Laboratory results: BindingDB's records for doi:10.1021/jm00113a025 (Merck Sharp and Dohme Research Laboratories, 1991)

Biological target: T1, Dimer of Gag-Pol polyprotein [489-587] (Human immunodeficiency virus 1, UniProt P04585)
T1 construct: 489-587
Assay: Protease Inhibition Assay
Conditions: pH 5.5; 30 °C
Description: Sensitivity of HIV-1 protease activity to protease inhibitors was determined by a peptide substrate cleavage assay. Protease products were analyzed on a reverse-phase high-pressure liquid chromatograph.

SMILES	IC50
CC(C)C[C@H](NC(=O)[C@H](Cc1ccccc1)C[C@H](O)[C@H](Cc1ccccc1)NC(=O)OC(C)(C)C)C(=O)N[C@@H](Cc1ccccc1)C(N)=O [Hydroxyethylene dipeptide isostere]	0.6 nM
CCC(C)[C@H](NC(=O)[C@H](Cc1ccccc1)C[C@H](O)[C@H](Cc1ccccc1)NC(=O)OC(C)(C)C)C(=O)N[C@@H](Cc1ccccc1)C(N)=O (stereo partly drawn) [tert-butyl N-[(2S,3S,5R)-5-benzyl-5-{[(1S,2S)-1-{[(1S)-1-carbamoyl-2-phenylethyl]carbamoyl}-2-methylbutyl]carbamoyl}-3-hydroxy-1-phenylpentan-2-yl]carbamate]	0.25 nM
